Entries after “also recorded” stand apart in the source; their conditions may differ.
How the values were obtained:
RAD52-ssDNA interaction = biological target: T1, RAD52-ssDNA interaction (Homo sapiens, UniProt P43351); experiment: FRET-based inhibition of the RAD52-ssDNA interaction; type: binding; details: for effect on the RAD52-ssDNA complex / capacity to inhibit RAD52: FRET titration; for selectivity towards RAD52 over RPA: in vitro FRET-based assays
T1 construct: 6xHis; made in house
T1 sequence (P43351 1-418): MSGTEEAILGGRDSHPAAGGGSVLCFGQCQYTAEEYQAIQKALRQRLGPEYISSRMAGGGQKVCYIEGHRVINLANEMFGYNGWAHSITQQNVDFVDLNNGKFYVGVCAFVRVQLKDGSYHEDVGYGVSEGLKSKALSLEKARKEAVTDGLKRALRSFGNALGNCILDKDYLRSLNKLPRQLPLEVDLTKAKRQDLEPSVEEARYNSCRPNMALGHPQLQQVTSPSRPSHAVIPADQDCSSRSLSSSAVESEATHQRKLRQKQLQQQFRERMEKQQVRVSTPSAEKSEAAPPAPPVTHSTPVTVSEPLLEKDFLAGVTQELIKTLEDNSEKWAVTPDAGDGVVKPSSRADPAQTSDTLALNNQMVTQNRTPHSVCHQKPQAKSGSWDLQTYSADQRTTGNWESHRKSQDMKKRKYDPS
Experimental: (§1) Proteins: The 6×His-tagged human RAD52 proteins (wild type and mutants) and untagged human RPA were expressed and purified as previously described in (Hengel S R, eLife. 2016; 5; Grimme J M, et al., Nucleic Acids Res. 2010; 38(9):2917-30; and Henricksen L A, et al., The Journal of biological chemistry. 1994; 269(15):11121-32). RPA and RAD52 protein concentrations were determined by measuring absorbance at 280 nm using extinction coefficients of 88,830 M^−1 cm^−1 and 40,470 M^−1 cm^−1, respectively.
(§2) FRET-based DNA binding and inhibition assays: FRET-based that monitor the RAD52-ssDNA, RPA-ssDNA and RAD52-RPA-ssDNA binding were carried out as previously described (Hengel S R, eLife. 2016; 5; Grimme J M, et al., Nucleic Acids Res. 2010; 38(9):2917-30; and Grimme J M, Spies M. FRET-based assays to monitor DNA binding and annealing by Rad52 recombination mediator protein. Methods in molecular biology (Clifton, NJ). 2011; 745:463-83) using Cary Eclipse Spectrofluorimeter (Agilent) at 25° C., in 5 mm quartz cuvettes, and in buffer containing 30 mM Tris-Acetate (pH 7.5) and 1 mM DTT. Cy3 dye was excited at 530 nm and its emission was monitored at 565 nm. Emission of Cy5 acceptor fluorophore excited through the energy transfer from Cy3 donor is monitored at 660 nm simultaneously with emission of Cy3 dye. Both the excitation and the emission slits were set to 10 nm. All experiments were carried out using 1 nM (molecules) Cy3-dT30-Cy5 ssDNA. The optimal concentrations of the RAD52 (6 nM) and RPA (1 nM) proteins were selected by titrating the respective protein into 1 nM Cy3-dT30-Cy5 solution, and chosen based on the largest separation of the FRET values corresponding to the protein bound and free DNA.
(§3) The inhibition of the RAD52-ssDNA, RPA-ssDNA and RAD52-RPA-ssDNA complexes was evaluated by titrating each compound to the respective complex, measuring Cy3 and Cy5 fluorescence, and calculating FRET as previously described (Hengel, S. R., et al., eLife, 5).
(§4) Spectral properties of many compounds overlapped with the Cy3 and Cy5 fluorescence. To correct the calculated FRET values for the compound signal, the fluorogenic compounds were titrated into buffer and into solution of 1 nM Cy3-dT30-Cy5. For all tested compounds, the change in the signal in the Cy3 and Cy5 channels with and without Cy3/Cy5-labeled DNA present was the same. […] To account for the dye fluorescence, for each compound concentration, the apparent change in FRET of the ssDNA in the presence the compound was subtracted from the respective FRET signal of the RAD52-ssDNA, RPA-ssDNA or RAD52-ssDNA-RPA complex at the same inhibitor concentration. The IC50 values were calculated by fitting the corrected FRET data to the four-parameter dose response model using GraphPad Prism. All data are shown as average for at least three independent experiments ±standard deviation. The IC50 values are presented with their respective fitting error.

RPA-ssDNA interaction = biological target: T2, RPA-ssDNA interaction (Homo sapiens, UniProt P27694); experiment: FRET-based inhibition of the RPA-ssDNA interaction; type: binding; details: FRET titration
T2 construct: made in house
T2 sequence (P27694 whole entry): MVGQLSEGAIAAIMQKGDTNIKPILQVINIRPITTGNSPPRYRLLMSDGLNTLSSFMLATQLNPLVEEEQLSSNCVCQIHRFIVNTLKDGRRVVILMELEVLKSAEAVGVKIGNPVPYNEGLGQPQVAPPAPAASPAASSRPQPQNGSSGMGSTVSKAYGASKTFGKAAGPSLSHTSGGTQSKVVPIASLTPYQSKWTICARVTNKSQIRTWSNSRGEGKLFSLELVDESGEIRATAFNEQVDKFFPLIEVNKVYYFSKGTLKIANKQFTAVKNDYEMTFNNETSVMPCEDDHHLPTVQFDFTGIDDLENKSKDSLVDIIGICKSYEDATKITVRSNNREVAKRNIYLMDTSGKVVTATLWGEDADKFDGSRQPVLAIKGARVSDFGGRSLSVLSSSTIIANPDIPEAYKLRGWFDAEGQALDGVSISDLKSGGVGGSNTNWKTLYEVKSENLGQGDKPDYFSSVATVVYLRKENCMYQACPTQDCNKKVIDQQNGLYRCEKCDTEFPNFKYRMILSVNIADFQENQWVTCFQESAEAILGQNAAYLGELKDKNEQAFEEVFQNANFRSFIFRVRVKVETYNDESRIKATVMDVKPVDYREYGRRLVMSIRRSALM
T2 sequence (P15927 whole entry partner): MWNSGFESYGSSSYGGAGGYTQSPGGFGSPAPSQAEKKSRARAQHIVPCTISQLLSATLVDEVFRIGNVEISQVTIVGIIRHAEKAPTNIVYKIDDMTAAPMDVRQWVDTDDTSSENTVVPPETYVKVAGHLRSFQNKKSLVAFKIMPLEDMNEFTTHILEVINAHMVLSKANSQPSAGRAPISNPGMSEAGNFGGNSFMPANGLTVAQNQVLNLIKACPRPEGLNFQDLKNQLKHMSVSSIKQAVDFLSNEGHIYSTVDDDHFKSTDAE
T2 sequence (P35244 whole entry partner): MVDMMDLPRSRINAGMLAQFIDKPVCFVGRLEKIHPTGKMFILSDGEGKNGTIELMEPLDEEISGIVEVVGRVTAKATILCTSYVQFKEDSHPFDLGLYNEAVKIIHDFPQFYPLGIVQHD
Experimental: as §1, §2, §3, §4

EUFA423F HA cells = experiment: CellTiter-Glo cell viability, BRCA2-complemented cells; type: cell-based, human; details: high concentrations (Z56: 250 μM)

Structure (SMILES)	effect on the RAD52-ssDNA complex / capacity to inhibit RAD52 (RAD52-ssDNA interaction)	selectivity towards RAD52 over RPA (RAD52-ssDNA interaction; listed as Z56)	effect on the RPA-ssDNA complex (RPA-ssDNA interaction; listed as Z56)	effect on viability/growth of BRCA2-complemented HA cells (EUFA423F HA cells)	selectivity towards RAD52 over RPA (RAD52-ssDNA interaction; listed as Z99)	effect on the RPA-ssDNA complex (RPA-ssDNA interaction)	effect on viability/growth of BRCA2-complemented HA cells (EUFA423F HA cells; listed as Z99)
COc1ccccc1NS(=O)(=O)c1cc(C(=O)O)ccc1C [Example 8]	FRET decrease	specific to RAD52 over RPA in vitro; also recorded: shows selectivity towards RAD52 over RPA	does not change the FRET values of the RPA-ssDNA complex; also recorded: no effect on the RPA-ssDNA complex	unaffected	–	–	–
O=C(Cn1cccc([N+](=O)[O-])c1=O)c1c[nH]c2ccccc12 [Example 1]	FRET decrease	–	–	–	more promiscuous also inhibiting RPA; also recorded: more promiscuous, inhibited RPA in vitro	yields FRET values corresponding to the free ssDNA	affected the viability; also recorded: some toxicity towards BRCA2-complemented cells

Source: US20260193227A1, “THERAPEUTIC COMPOUNDS AND METHODS” (UNIVERSITY OF IOWA RESEARCH FOUNDATION, priority 2022, published 2026)
